# Data published in US8084586B2, “Doxorubicin immunoassay” (Saladax Biomedical, Inc., priority 2005, dated 2011).
# Experiments:
# [1] = test system: antibodies to doxorubicin [5]-BTG (Immunogen Example 4a, Example 8); experiment: Indirect competitive microtiter plate ELISA, cross-reactivity, antiserum from doxorubicin [5]-BTG immunogen (Example 4a); type: binding, mouse (BALB/c); conditions: relative to doxorubicin
# Procedure: Mice were boosted once four weeks after the initial injection with 100 μg/mouse of the same immunogens emulsified in Incomplete Freund's Adjuvant. Ten and 28 days after the boost test bleeds from each mouse were obtained by orbital bleed. The anti-serum from the day 28 test bleeds contained doxorubicin antibodies evaluated in Examples 10a and 11. […] For the purpose of screening antibodies and measuring doxorubicin concentration by the Enzyme-Linked Immunosorbent Assay (ELISA) method polystyrene microtiter plates (Nunc MaxiSorp F8 Immunomodules) optimized for protein binding and containing 96 wells per plate were used. […] The wells were washed with 0.005 M MES, pH 6 and then were blocked with 375 μL of 5% sucrose, 0.2% sodium caseinate solution for 30 minutes at room temperature. After removal of the post-coat solution the plates were dried at 37° C. overnight. […] The wells were washed with 0.005 M MES, pH 6 and then were blocked with 375 μL of 5% sucrose, 0.2% sodium caseinate solution for 30 minutes at room temperature. After removal of the post-coat solution the plates were dried at 37° C. overnight. For the purpose of screening antibodies and measuring doxorubicin concentration by the Enzyme-Linked Immunosorbent Assay (ELISA) method polystyrene microtiter plates (Nunc MaxiSorp F8 Immunomodules) optimized for protein binding and containing 96 wells per plate were used. […] The wells were washed with 0.005 M MES, pH 6 and then were blocked with 375 μL of 5% sucrose, 0.2% sodium caseinate solution for 30 minutes at room temperature. After removal of the post-coat solution the plates were dried at 37° C. overnight. Antibodies were screened by Enzyme-Linked Immunosorbent Assay (ELISA) method. […] During this incubation antibody binds to the doxorubicin [5]-conjugate in the well. […] After an incubation of 10 minutes at room temperature with shaking, during which the goat anti-mouse antibody—HRP enzyme conjugate binds to doxorubicin antibodies in the wells, the plates were again washed three times to remove unbound goat anti-mouse antibody—HRP enzyme conjugate. To develop a measurable color in the wells washing was followed by the addition of 100 μL of TMB (TMB Liquid Substrate), a substrate for HRP, to develop color during a 10 minute incubation with shaking at room temperature. Following the incubation for color development, 50 μL of stop solution (1.5% sodium fluoride in di H2O) was added to each well to stop the color development and after 10 seconds of shaking the absorbance was determined at 650 nm with a 96-well plate reader. The amount of antibody in a well was proportional to the absorbance measured and was expressed as the dilution (titer) resulting in an absorbance of 1.5. Titers were determined by graphing log antibody dilution of the antibody measured (x-axis) vs. absorbance 650 nm (y-axis) and extrapolating the titer at an absorbance of 1.5. The titer determined the concentration (dilution) of antibody used in the indirect competitive Microtiter plate assay described in Example 11. Doxorubicin concentrations were measured by an indirect competitive Enzyme-Linked Immunosorbent Assay (ELISA) method This method for measuring doxorubicin concentrations was performed with the microtiter plates that were sensitized with doxorubicin [1]-BSA described in Examples 9b, c, d. […] During the 10 minute incubation (R.T., with shaking) there is a competition of antibody binding for the doxorubicin conjugate in the well and the analyte in solution. […]
# [2] = test system: antibodies to doxorubicin [5]-KLH (Immunogen Example 4b, Example 8); experiment: Indirect competitive microtiter plate ELISA, cross-reactivity, antiserum from doxorubicin [5]-KLH immunogen (Example 4b); type: binding, mouse (BALB/c); conditions: relative to doxorubicin
# Procedure: Mice were boosted once four weeks after the initial injection with 100 μg/mouse of the same immunogens emulsified in Incomplete Freund's Adjuvant. Ten and 28 days after the boost test bleeds from each mouse were obtained by orbital bleed. The anti-serum from the day 28 test bleeds contained doxorubicin antibodies evaluated in Examples 10a and 11. […] For the purpose of screening antibodies and measuring doxorubicin concentration by the Enzyme-Linked Immunosorbent Assay (ELISA) method polystyrene microtiter plates (Nunc MaxiSorp F8 Immunomodules) optimized for protein binding and containing 96 wells per plate were used. […] The wells were washed with 0.005 M MES, pH 6 and then were blocked with 375 μL of 5% sucrose, 0.2% sodium caseinate solution for 30 minutes at room temperature. After removal of the post-coat solution the plates were dried at 37° C. overnight. For the purpose of screening antibodies and measuring doxorubicin concentration by the Enzyme-Linked Immunosorbent Assay (ELISA) method polystyrene microtiter plates (Nunc MaxiSorp F8 Immunomodules) optimized for protein binding and containing 96 wells per plate were used. […] The wells were washed with 0.005 M MES, pH 6 and then were blocked with 375 μL of 5% sucrose, 0.2% sodium caseinate solution for 30 minutes at room temperature. After removal of the post-coat solution the plates were dried at 37° C. overnight. For the purpose of screening antibodies and measuring doxorubicin concentration by the Enzyme-Linked Immunosorbent Assay (ELISA) method polystyrene microtiter plates (Nunc MaxiSorp F8 Immunomodules) optimized for protein binding and containing 96 wells per plate were used. […] Following the incubation for color development, 50 μL of stop solution (1.5% sodium fluoride in di H2O) was added to each well to stop the color development and after 10 seconds of shaking the absorbance was determined at 650 nm with a 96-well plate reader. The amount of antibody in a well was proportional to the absorbance measured and was expressed as the dilution (titer) resulting in an absorbance of 1.5. Titers were determined by graphing log antibody dilution of the antibody measured (x-axis) vs. absorbance 650 nm (y-axis) and extrapolating the titer at an absorbance of 1.5. The titer determined the concentration (dilution) of antibody used in the indirect competitive Microtiter plate assay described in Example 11. Doxorubicin concentrations were measured by an indirect competitive Enzyme-Linked Immunosorbent Assay (ELISA) method This method for measuring doxorubicin concentrations was performed with the microtiter plates that were sensitized with doxorubicin [1]-BSA described in Examples 9b, c, d. […]
# [3] = test system: monoclonal antibody to doxorubicin [4]-BTG (Immunogen Example 3a, Example 7); experiment: Indirect competitive microtiter plate ELISA, cross-reactivity, monoclonal antibody from doxorubicin [4]-BTG immunogen (Example 3a); type: binding, mouse (BALB/c); conditions: relative to doxorubicin
# Procedure: (§1) Two groups of ten Female BALB/c mice were immunized i.p. one with 100 μg/mouse of doxorubicin [4]-BTG immunogen prepared in Example 3a and the other with 100 μg/mouse of doxorubicin [4]-KLH immunogen prepared in Example 3b emulsified in Complete Freund's adjuvant. The mice were boosted once four weeks after the initial injection with 100 μg/mouse of the same immunogens emulsified in Incomplete Freund's Adjuvant. Ten days after the boost test bleeds from each mouse were obtained by orbital bleed. For monoclonal antibodies depending on the immunogen, age and rest period of the mouse starting four days before the fusion, the mice were injected i.p. with either 400 μg (3 days before fusion), 200 μg (2 days before fusion), and […] (1 day before fusion) of doxorubicin [4]-BTG immunogen prepared in Example 3a in PBS or 100 ug on each day of doxorubicin [4]-KLH immunogen prepared in Example 3b in PBS on three successive days. According to the protocol of Coligan et al. spleen cells were isolated from the selected mice and fused with 2×10^7 cells of the myeloma fusion partner cell line (SP2/0) using 50% polyethylene glycol 1500 [Coligan, J. E. et al., eds., Current Protocols in Immunology, 2.5.1-2.5.8, (1992), Wiley & Sons, NY.] To grow the fused cells into antibody producing colonies according to the method of Coligan et al. the fused cells were plated on 10 96-well plates in a conventional HAT (hypoxanthine, aminopterin and thymidine) selective growth medium such as DMEM/F12 (Dulbecco's Modified Eagle's Medium 1:1 with L-glutamine and HEPES) supplemented with 20% fetal bovine serum alternative, and containing 2% L-glutamine (100 mM) and 2% 50× HAT. Two weeks later, the hybridoma supernatant was assayed for the presence of anti-doxorubicin antibodies by ELISA as described in Example 10b. Positive wells were expanded and again screened by the same method. The positive clones were confirmed for doxorubicin binding by a competitive ELISA as described in Example 11 or subcloned directly. Clones positive by ELISA were subcloned once or twice by limiting dilution according to the method disclosed in Coligan, J. E. et al., eds., Current Protocols in Immunology, 2.5.8-2.5.17, (1992), Wiley & Sons, NY.
# For the purpose of screening antibodies and measuring doxorubicin concentration by the Enzyme-Linked Immunosorbent Assay (ELISA) method polystyrene microtiter plates (Nunc MaxiSorp F8 Immunomodules) optimized for protein binding and containing 96 wells per plate were used. Each well was coated with doxorubicin [5]-BSA 3:1 conjugate (prepared as in Example 6b) by adding 300 μL of doxorubicin [1]-BSA conjugate at 10 μg/mL in 0.01 M MES, pH=6, and incubating for three hours at room temperature. […]
# [4] = test system: monoclonal antibody to doxorubicin [4]-KLH (Immunogen Example 3b, Example 7); experiment: Indirect competitive microtiter plate ELISA, cross-reactivity, monoclonal antibody from doxorubicin [4]-KLH immunogen (Example 3b); type: binding, mouse (BALB/c); conditions: relative to doxorubicin
# Procedure: as §1
# (§2) For the purpose of screening antibodies and measuring doxorubicin concentration by the Enzyme-Linked Immunosorbent Assay (ELISA) method polystyrene microtiter plates (Nunc MaxiSorp F8 Immunomodules) optimized for protein binding and containing 96 wells per plate were used. Each well was coated with doxorubicin [5]-BSA 3:1 conjugate (prepared as in Example 6b) by adding 300 μL of doxorubicin [1]-BSA conjugate at 10 μg/mL in 0.01 M MES, pH=6, and incubating for three hours at room temperature. The wells were washed with 0.005 M MES, pH 6 and then were blocked with 375 μL of 5% sucrose, 0.2% sodium caseinate solution for 30 minutes at room temperature. After removal of the post-coat solution the plates were dried at 37° C. overnight.
# as §2, with “[1]-BSA 1:1” for “[5]-BSA 3:1”, “6c)” for “6b)”, “[5]-BSA” for “[1]-BSA”
# For the purpose of screening antibodies and measuring doxorubicin concentration by the Enzyme-Linked Immunosorbent Assay (ELISA) method polystyrene microtiter plates (Nunc MaxiSorp F8 Immunomodules) optimized for protein binding and containing 96 wells per plate were used. […]
# [5] = test system: antibody as produced in Examples 7 and 8 with immunogen of Examples 3a, 3b, 4a & b; experiment: Competitive immunoassay cross-reactivity, antibodies of Examples 7 and 8 taken together; type: binding, mouse; conditions: antibodies of Examples 7 and 8, immunogens of Examples 3a
# Procedure: The present invention relates to novel antibodies and monoclonal antibodies to doxorubicin. The antisera of the invention can be conveniently produced by immunizing host animals with the immunogens of this invention. Suitable host animals include rodents, such as, for example, mice, rats, rabbits, guinea pigs and the like, or higher mammals such as goats, sheep, horses and the like. […] Doxorubicin concentrations were measured by an indirect competitive Enzyme-Linked Immunosorbent Assay (ELISA) method This method for measuring doxorubicin concentrations was performed with the microtiter plates that were sensitized with doxorubicin [1]-BSA described in Examples 9b, c, d. […] The assay was performed by incubating 50 μL of the analytes to be measured with 50 μL of antibody (produced in Examples 7 and 8 with immunogens of Examples 3a, 3b, 4a and 4b) diluted to a titer determined in Example 10a. […] Following the incubation for color development, 50 μL of stop solution (1.5% sodium fluoride in di H2O) was added to each well to stop the color development and after 10 seconds of shaking the absorbance was determined at 650 nm with a 96-well plate reader. The amount of antibody in a well was proportional to the absorbance measured and inversely proportional to the amount of doxorubicin in the sample. […]
# [6] = plate sensitized as in Example 9b (doxorubicin [5]-BSA 3:1)
# [7] = plate sensitized as in Example 9c (doxorubicin [5]-BSA 1:1)
# [8] = plate sensitized as in Example 9d (doxorubicin [5]-BSA 1:1 thiol capped)
smiles,measurement,setting,value
"COc1cccc2c1C(=O)c1c(O)c3c(c(O)c1C2=O)C[C@@](O)(C(=O)CO)C[C@@H]3O [doxorubicin-aglycone, doxorubicin aglycone]",% cross-reactivity,[1]; [6],5.7%
same,% cross-reactivity,[1]; [7],10.0%
same,% cross-reactivity,[1]; [8],8.8%
same,% cross-reactivity,[2]; [6],8.6%
same,% cross-reactivity,[3]; [6],10.6%
same,% cross-reactivity,[3]; [7],12.9%
same,% cross-reactivity,[4]; [6],1.5%
same,% cross-reactivity,[4]; [7],3.9%
same,% cross-reactivity,[4]; [8],3.0%
same,percent cross-reactivity relative to doxorubicin,[5],less than or equal to 10%
COc1cccc2c1C(=O)c1c(O)c3c(c(O)c1C2=O)C[C@@](O)(C(=O)CO)C[C@@H]3O[C@H]1C[C@H](N)[C@H](O)[C@H](C)O1.Cl [doxorubicin],% cross-reactivity,[1]; [6],100%
same,% cross-reactivity,[1]; [7],100%
same,% cross-reactivity,[1]; [8],100%
same,% cross-reactivity,[2]; [6],100%
same,% cross-reactivity,[2]; [7],100%
same,% cross-reactivity,[2]; [8],100%
same,% cross-reactivity,[3]; [6],100%
same,% cross-reactivity,[3]; [7],100%
same,% cross-reactivity,[4]; [6],100%
same,% cross-reactivity,[4]; [7],100%
same,% cross-reactivity,[4]; [8],100%
